Test results: PubChem BioAssay AID179 (DTP/NCI, 2004)
Calls of active or inactive are those of the source.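 The calls were made as follows: active = compounds giving half or more protection of infected cells from virus-caused growth loss, again on retest; inactive = the rest.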 Where a SMILES comes first, the peptide text is derived from it. The star is where a group is joined. Boc = CC(C)(C)OC(=O)*; tBu = CC(C)(C)*

Tested on: CEM cells HIV-1 protection, formazan growth assay
Assay: NCI AIDS Antiviral Assay
Settings: for IC50: measured here: growth of uninfected CEM cells
How it was run: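 Category rules: moderately active means at least 50% protection on retest, and confirmed active means 100% protection reproducibly. The underlying data came from a formazan growth assay in HIV-1-infected CEM cells.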

Row | Structure (SMILES) | EC50 [µM] | IC50 [µM] | outcome
1 | Nc1nc2cnc(COc3ccccc3)nc2c(=O)[nH]1 | > 200 | > 200 | –
2 | COc1cc2c(cc1OC)C(CC(=O)NN=C(C)C)NCC2 (stereo unspecified) | > 813 | > 813 | –
3 | COc1cccc(C2(C#N)CCN(C)CC2)c1 | > 1070 | 537 | –
4 | CC1(C)OC(=O)C(=Cc2cccc(C#N)c2)C(=O)O1 | > 708 | 41.7 | –
5 | COc1ccccc1NC(=O)C1=C(C)NC(C)=C(C(=O)Nc2ccccc2OC)C1c1ccc(C)cc1 | > 7.59 | > 7.59 | –
6 | O=C1C2C(C(=O)N1Cc1ccccc1)N(Cc1ccccc1)C(=O)N2Cc1ccccc1 (stereo unspecified) | > 12.3 | > 12.3 | –
7 | CCOC(=O)CC[C@H](NC(=O)c1[nH]cnc1/N=N/N(C)C)C(=O)OCC | > 676 | 339 | –
8 | Cc1ccc(C)c(N2C(=O)C(=O)c3c(C)ccc(C)c32)c1 | > 200 | 33.1 | –
9 | C=C(CCCC(C)OC(=O)NC(C)c1cccc2ccccc12)[Si](C)(C)C (stereo unspecified) | > 18.6 | > 18.6 | –
10 | CC1=C2OCS(=O)C2C2C(=O)N(c3ccccc3)C(=O)C2C1 (stereo unspecified) | > 794 | 501 | –
11 | N#CC(C(=O)/C(=N/NC(=O)c1ccccc1O)C(C#N)c1ccc(Br)cc1)c1ccc(Br)cc1 (stereo unspecified) | > 23.4 | > 23.4 | –
12 | C=C1C(=O)O[C@@H]2C[C@@H](C)[C@@H]3C=CC(=O)[C@@]3(C)[C@@H](O)[C@H]12 | > 9.55 | 0.513 | –
13 | COc1ccc(S(=O)(=O)O)cc1C(=O)c1cc(S(=O)(=O)O)ccc1OC | > 575 | > 575 | –
14 | CCN(CC)C(=O)c1cc(OC(C)C)ccc1-c1c(C)cc(OC(C)C)c(OC)c1OC | > 214 | > 214 | –
15 | O=C(O)Cn1nnc2c(=O)[nH][nH]c(=O)c21 | > 200 | > 200 | –
16 | COc1ccc(C(CC(=O)c2cccs2)C(=O)c2ccc3c(c2)OCO3)cc1 (stereo unspecified) | > 200 | 102 | –
17 | C(=C\c1ccccc1)/C[P+](c1ccccc1)(c1ccccc1)c1ccccc1 | > 200 | 0.525 | –
18 | O=C1C=CC(=CC=C2C=CN(CCCCCCCCCCC(=O)NCCCCCCCCCCCC(=O)O)C=C2)C=C1 | – | – | inactive
19 | O=S(=O)(O)c1ccc2c(N=Nc3ccc(/C=C/c4ccc(N=Nc5c(O)ccc6cc(S(=O)(=O)O)ccc56)cc4S(=O)(=O)O)c(S(=O)(=O)O)c3)c(O)ccc2c1 | 7.76 | 97.7 | –
20 | COCC(N=CN1CCCc2ccccc2[C@@H]1CCCCl)C(C)(C)C (stereo partly specified) | > 200 | 22.4 | –
21 | COc1ccc(/C=C/C(=O)OCCc2ccccc2)cc1O | > 8.32 | 4.47 | –
22 | Cc1csc(NC23CC4CC(CC(C4)C2)C3)[n+]1C(P(=O)([O-])O)P(=O)(O)O (stereo unspecified) | > 200 | > 200 | –
23 | CCN1CCC2(CC1)OC(c1ccccc1)C(c1ccccc1)O2 (stereo unspecified) | > 200 | 112 | –
24 | CC1CCn2c(=S)[nH]c3cccc(c32)N1 (stereo unspecified) | 42.7 | 182 | –
25 | O=C(O)CCC12CC[C@]3(O)OC(=O)[C@H](C[C@@H]1C(=O)O)C23 (stereo partly specified) | – | – | inactive
26 | O=C1c2ccccc2C(=Nc2ccc3ccccc3c2)C1(C1=C(c2ccccc2)C(=Nc2ccc3ccccc3c2)c2ccccc21)c1ccccc1 (stereo unspecified) | > 200 | 11.7 | –

Row | Structure (SMILES) | EC50 [µM] | IC50 [µM] | outcome
27 | COc1nc(C(=O)NNC(=O)c2nc(OC)c3ccccc3c2-c2ccccc2)c(-c2ccccc2)c2ccccc12 | – | – | inactive
28 | O=C1C=CC(=O)[C@H]2C3C=CC(C4C3C3(Cl)C(Cl)=C(Cl)[C@]4(Cl)C3(Cl)Cl)[C@@H]12 (stereo partly specified) | > 200 | 12 | –
29 | O=C(O)C1[S][Bi]([S]C(C(=O)O)C([S][Bi]2[S]C(C(=O)O)C(C(=O)O)[S]2)C(=O)O)[S]C1C(=O)O (stereo unspecified) | > 1.32 | > 1.32 | –
30 | C=CCNC1=C2C[C@@H](C)C[C@@H](OC)[C@@H](OC(=O)CCCN)[C@H](C)/C=C(\C)[C@@H](OC(N)=O)[C@H](OC)/C=C\C=C(/C)C(=O)NC(=CC1=O)C2=O | > 200 | 5.5 | –
31 | Oc1cc(Cl)cc2cc(Br)cnc12 | – | – | inactive
32 | NC(CCSS(=O)(=O)O)=NCC(c1ccccc1)c1ccccc1 | > 123 | 20 | –
33 | CN1CCN(CCCCN2c3ccccc3Sc3ccc(N=[N+]=[N-])cc32)CC1 | > 200 | 5.25 | –
34 | O=C(Nc1nccs1)c1c(O)nc2sccn2c1=O | > 200 | > 200 | –
35 | O=C(CC(=O)c1cccc([N+](=O)[O-])c1)C(=O)Nc1ccccc1 | > 417 | > 417 | –
36 | c1ccc(-c2cc(-c3cccs3)c(-c3cccs3)o2)cc1 | > 200 | 25.7 | –
37 | CCOC(=O)NC(O)C(Cl)(Cl)Cl (stereo unspecified) | > 200 | > 200 | –
38 | CC(=O)[O-].N.N.N.N.[Co+3].[O-][Cl+3]([O-])([O-])[O-].[OH3+] | – | – | inactive
39 | Cc1cc(N(CCC#N)CCC#N)ccc1/C=C/C(=O)Nc1ccccc1Cl | > 457 | > 457 | –
40 | N#CC(/C(CCCC(=O)Nc1cccc([N+](=O)[O-])c1)=N\NC(=O)c1c(O)ccc2ccccc12)c1nc2ccccc2s1 (stereo unspecified) | – | – | inactive
41 | Oc1c(C(O)c2ccccn2)ccc2ccccc12 (stereo unspecified) | > 200 | 36.3 | –
42 | CC(=O)OC1[C@@H](OC(C)=O)CN(OCc2ccccc2)C[C@H]1OC(C)=O (stereo partly specified) | > 200 | > 200 | –
43 | O=C(Nc1ccc(Cl)cc1Cl)c1cc2nc3ccccc3c(=O)n2c2ccccc12 | > 100 | > 100 | –
44 | Cc1ncc(COP(=O)(O)O)c(/C=C2\SC(=S)NC2=O)c1O | > 200 | > 200 | –
45 | C[Si](C)(C)O[C@@H]1CCCC1NCC#N (stereo partly specified) | – | – | inactive
46 | COc1ccccc1/C=C/c1ccc2ccccc2n1 | > 200 | 38 | –
47 | Cn1c(=O)nc2n(-c3ccc(Cl)cc3)c3ccc(Cl)cc3nc-2c1=O | – | – | inactive
48 | N#Cc1[nH]c(=O)n(-c2ccc(Cl)cc2)c1N | > 200 | > 200 | –
49 | COc1cc(/C=C2\C=Cc3ccccc32)cc(OC)c1OC | > 24.5 | > 24.5 | –
50 | N/N=c1\c2ccccc2c2cc3c(cc12)/c(=N/N)c1ccccc13 | > 17 | > 17 | –
51 | C/C(=N\NC(=O)CC(=O)N(C(=O)c1ccccc1Cl)c1ccc(C)cc1)c1ccc(Cl)cc1 | > 14.1 | > 14.1 | –
52 | Cc1cc(N(CCC#N)CCC#N)ccc1/C(Sc1ccccc1)=C(\NC(=O)/C=C/c1ccccc1)C(=O)Sc1ccccc1 | > 21.4 | 12.6 | –

Row | Structure (SMILES) | EC50 [µM] | IC50 [µM] | outcome
53 | N.N.N.N.[Co+3].[O-][Cl+3]([O-])([O-])[O-].[OH3+].[OH3+] | – | – | inactive
54 | CN(CCN(C)C(=S)NN)C(=S)NN | > 200 | 132 | –
55 | NC1N=C(c2ccc(Cl)cc2)C2=C(N1)c1ccccc1CC2 (stereo unspecified) | > 200 | 6.76 | –
56 | COC(=O)CCC(NC(=O)OC(C)(C)C)C(=O)NC(Cc1ccc(NC(=O)CCCC(C)=O)cc1)C(=O)NC(CCC(=O)OC)C(=O)OC (stereo unspecified) | > 100 | > 100 | –
57 | COC(=O)/C=C(/Sc1nc(Cl)c(Cl)nc1N)C(=O)OC (tested in a mixture with another compound) | > 200 | 2.45 | –
58 | CC(OC(C)(C)C)C(NC(=O)C(N)CCCCNC(=O)OC(C)(C)C)C(=O)NC(Cc1ccccc1)C(=O)O (stereo unspecified) (H-Lys(Boc)-Thr(tBu)-Phe-OH; configuration not given here) | > 200 | > 200 | –
59 | N#Cc1cc(NC(=O)c2ccccc2)c(=O)n2c1[nH]c1ccccc12 | – | – | inactive
60 | COc1ccc2cc1Oc1ccc(cc1)CC1c3cc(c(OC)cc3CCN1C)Oc1c(OC)c(OC)c(OC)c3c1[C@H](C2)N(C)CC3 (stereo partly specified) | – | – | inactive
61 | OC1(c2ccccc2)CCCCCCCCC(O)(c2ccccc2)CCCCCCCC1 (stereo unspecified) | > 200 | > 200 | –
62 | OC1CC(O)O[C@H](c2ccccc2)C1 (stereo partly specified) | – | – | inactive
63 | O=c1c2c(nc3n1CCC3)sc1c(O)c(Br)ccc12 | > 200 | 11 | –
64 | Cc1cc(O)c(/C=N/c2nc(-c3cccc([N+](=O)[O-])c3)cs2)c(=O)o1 | > 200 | 35.5 | –
65 | COc1ccc(C(=O)N2c3ccccc3N(C)n3cccc3C2CC(=O)O)cc1 (stereo unspecified) | > 646 | 234 | –
66 | COc1ccc(/C=C2\CCS(=O)(=O)c3ccccc3C2=O)cc1 | > 200 | 16.6 | –
67 | CC(C)(C)OC(=O)C1=C(O)C(C(=O)OC(C)(C)C)C23CCCCC12C(C(=O)OC(C)(C)C)C(O)=C3C(=O)OC(C)(C)C (stereo unspecified) | – | – | inactive
68 | C1CC[N-]CC1.Oc1ccccc1C=NCCN=Cc1ccccc1O.[Co] | > 200 | 15.5 | –
69 | Oc1ccccc1-c1nnc2n1N=C(c1ccc(-c3ccccc3)cc1)CS2 | > 200 | 15.5 | –
70 | Cc1ccc(-c2c3nc(c(-c4ccc(C)cc4)c4ccc([nH]4)c(-c4ccc(C)cc4)c4nc(c(-c5ccncc5)c5ccc2[nH]5)C=C4)C=C3)cc1.Cc1ccc(-c2c3nc(c(-c4ccc(C)cc4)c4ccc([nH]4)c(-c4ccc(C)cc4)c4nc(c(-c5ccncc5)c5ccc2[nH]5)C=C4)C=C3)cc1.Cc1ccc(-c2c3nc(c(-c4ccc(C)cc4)c4ccc([nH]4)c(-c4ccc(C)cc4)c4nc(c(-c5ccncc5)c5ccc2[nH]5)C=C4)C=C3)cc1.Cc1ccc(-c2c3nc(c(-c4ccc(C)cc4)c4ccc([nH]4)c(-c4ccc(C)cc4)c4nc(c(-c5ccncc5)c5ccc2[nH]5)C=C4)C=C3)cc1.O=S(=O)([O-])C(F)(F)F.[Pd] | > 25.1 | > 25.1 | –
71 | COc1ccc2cc1Oc1ccc(cc1)C[C@H]1NCCc3cc(OC)c(cc31)Oc1c(O)c(OC)cc3c1CCN(C)C3C2 (stereo partly specified) | – | – | inactive
72 | Cc1cc(C)n(-c2nc3ccccc3c(=O)[nH]2)n1 | > 5.13 | 1.07 | –
73 | C=C1C(=O)OC2C1CC[C@H](C)C1(O)C(O)CC(=O)[C@@]21C (stereo partly specified) | – | – | inactive
74 | NC(N)=NCCN1CCCCCCC1 | > 200 | > 200 | –
75 | N#CC1=C(S)N(C2OC(CO)C(O)C(O)C2O)C(c2ccccc2)=CC1c1ccco1 (stereo unspecified) | > 200 | 42.7 | –
76 | COc1ccc2c(=O)c(-c3cc4c(cc3OC)OCO4)coc2c1 | > 200 | > 200 | –
77 | O=C(NC(=Nc1ccccc1)SCSC(=Nc1ccccc1)NC(=O)c1ccc(F)cc1)c1ccc(F)cc1 | > 200 | > 200 | –
78 | COc1ccc(C[C@H]2COC(=O)[C@@H]2Cc2cc(OC)c(OC)c(OC)c2)cc1OC | > 200 | 115 | –
